Assay: xn = mol fraction of the nth substance listed

CC(=O)CC(C)=O + CCCO
303.15 K, 101 kPa
Settings	viscosity [mPa·s]
x1 = 0.05	1.453
x1 = 0.1	1.271
x1 = 0.2999	0.922
x1 = 0.4999	0.769
x1 = 0.6999	0.697
x1 = 0.8994	0.673
x1 = 0.9487	0.667

CCCCC(C)O (stereo unspecified) + CO
298.15 K, 101.33 kPa
Settings	viscosity [mPa·s]
x2 = 0.1062	3.747
x2 = 0.2053	3.337
x2 = 0.3128	2.892
x2 = 0.412	2.43
x2 = 0.5053	2.04
x2 = 0.6071	1.647
x2 = 0.703	1.315
x2 = 0.8146	0.9858
x2 = 0.9006	0.7707

O=C1c2ccccc2C(=O)C1(O)O + CCCCCCCCCO
101.3 kPa, x1 = 0.25
Settings	viscosity [mPa·s]
293.15 K	38.14
298.15 K	27.87
303.15 K	21.73
308.15 K	17.37
313.15 K	13.74
318.15 K	11.01
323.15 K	9.139

[2H]O[2H] + Cc1cccnc1
viscosity [mPa·s], 101 kPa
Settings	x2 = 0.0233	x2 = 0.05084	x2 = 0.08428	x2 = 0.1255
297.15 K	1.471	1.954	2.315	2.706
298.15 K	1.433	1.899	2.249	2.627
299.15 K	1.389	1.846	2.189	2.558
300.15 K	1.355	1.794	2.122	2.483
301.15 K	1.32	1.751	2.059	2.401
302.15 K	1.284	1.7	1.999	2.33
303.15 K	1.254	1.656	1.949	2.267
304.15 K	1.225	1.615	1.893	2.2
305.15 K	1.191	1.578	1.843	2.14
306.15 K	1.165	1.538	1.793	2.083
307.15 K	1.136	1.502	1.751	2.033
308.15 K	1.104	1.467	1.708	1.981
309.15 K	1.082	1.434	1.665	1.932
310.15 K	1.055	1.404	1.631	1.889
311.15 K	1.034	1.371	1.589	1.841
312.15 K	1.007	1.344	1.555	1.804
313.15 K	0.984	1.32	1.522	1.765

C=CC#N + CCO
viscosity [mPa·s], 101.33 kPa
Settings	x1 = 0.1008	x1 = 0.1009	x1 = 0.2017	x1 = 0.3022	x1 = 0.403	x1 = 0.5025	x1 = 0.6044	x1 = 0.7032	x1 = 0.8006	x1 = 0.8993
298.15 K	–	0.859	0.704	0.593	0.513	0.458	0.415	0.384	0.363	0.348
303.15 K	–	0.787	0.648	0.551	0.48	0.431	0.392	0.364	0.345	0.332
308.15 K	0.724	–	0.602	0.513	0.451	0.405	0.371	0.347	0.329	0.318

CN(C)c1ccccc1 + CCCO
viscosity [mPa·s]
Settings	303.15 K	308.15 K	313.15 K	318.15 K	323.15 K
101 kPa, x1 = 0.0503	1.685	–	–	–	–
101 kPa, x1 = 0.1049	1.625	–	–	–	–
101 kPa, x1 = 0.1825	1.552	–	–	–	–
101 kPa, x1 = 0.2575	1.482	–	–	–	–
101 kPa, x1 = 0.3423	1.413	–	–	–	–
101 kPa, x1 = 0.3929	1.377	–	–	–	–
101 kPa, x1 = 0.4121	1.365	–	–	–	–
101 kPa, x1 = 0.4703	1.328	–	–	–	–
101 kPa, x1 = 0.5523	1.29	–	–	–	–
101 kPa, x1 = 0.6229	1.265	–	–	–	–
101 kPa, x1 = 0.7221	1.242	–	–	–	–
101 kPa, x1 = 0.8096	1.225	–	–	–	–
101 kPa, x1 = 0.9023	1.198	–	–	–	–
101.33 kPa, x1 = 0.1011	1.587	1.335	1.205	1.091	0.9913
101.33 kPa, x1 = 0.1989	1.345	1.214	1.1	1.005	0.9196
101.33 kPa, x1 = 0.2994	1.249	1.134	1.033	0.9491	0.8709
101.33 kPa, x1 = 0.4015	1.194	1.09	0.9974	0.9328	0.8513
101.33 kPa, x1 = 0.4992	1.153	1.057	0.9763	0.9019	0.8384
101.33 kPa, x1 = 0.598	1.126	1.034	0.9608	0.8881	0.8254
101.33 kPa, x1 = 0.7024	1.117	1.044	0.965	0.8981	0.8357
101.33 kPa, x1 = 0.798	1.126	1.037	0.9602	0.8961	0.8364
101.33 kPa, x1 = 0.9026	1.154	1.071	0.9947	0.9284	0.8751

CC(=O)CC(C)=O + CCCCO
303.15 K, 101 kPa
Settings	viscosity [mPa·s]
x1 = 0.0509	1.941
x1 = 0.1003	1.7
x1 = 0.3007	1.142
x1 = 0.5004	0.887
x1 = 0.7	0.751
x1 = 0.8998	0.692
x1 = 0.9504	0.678

C=CC#N + CCCCCCCO
viscosity [mPa·s], 101.33 kPa
Settings	x1 = 0.1047	x1 = 0.206	x1 = 0.3057	x1 = 0.4142	x1 = 0.5106	x1 = 0.6206	x1 = 0.7044	x1 = 0.8027	x1 = 0.9033
298.15 K	4.015	2.967	2.212	1.627	1.238	0.891	0.705	0.54	0.425
303.15 K	3.469	2.587	1.958	1.441	–	0.815	0.652	0.508	0.403
308.15 K	3	2.273	1.73	1.296	1.013	0.75	0.605	0.478	0.383

C=CC#N + CCCCCCO
viscosity [mPa·s], 101.33 kPa
Settings	x1 = 0.1023	x1 = 0.2036	x1 = 0.3089	x1 = 0.4105	x1 = 0.5081	x1 = 0.6117	x1 = 0.7084	x1 = 0.8056	x1 = 0.9019
298.15 K	3.139	2.308	1.705	1.3	1.006	0.774	0.617	0.495	0.41
303.15 K	2.727	2.03	1.522	1.175	0.916	0.712	0.571	0.466	0.388
308.15 K	2.38	1.799	1.365	1.063	0.84	0.661	0.533	0.439	0.37

CCC(C)(C)O + COc1ccccc1
viscosity [mPa·s], 101.33 kPa
Settings	x2 = 0.1	x2 = 0.2	x2 = 0.2997	x2 = 0.4001	x2 = 0.5007	x2 = 0.5997	x2 = 0.7012	x2 = 0.8005	x2 = 0.9
303.15 K	2.246	1.792	1.463	1.232	1.079	0.988	0.941	0.922	0.917
313.15 K	1.623	1.339	1.125	0.976	0.885	0.831	0.808	0.799	0.792
323.15 K	1.206	1.023	0.885	0.798	0.751	0.73	0.719	0.709	0.697

CCCCOC(=O)c1ccccc1C(=O)OCCCC + CCO
303.15 K, 101.33 kPa
Settings	viscosity [mPa·s]
x1 = 0.0982	1.555
x1 = 0.1991	2.302
x1 = 0.4046	4.211
x1 = 0.5046	5.31
x1 = 0.5634	6.002
x1 = 0.694	7.761
x1 = 0.807	9.476
x1 = 0.8877	10.91
x1 = 0.9316	11.68

C[N+](CCO)(CCO)CCO.[Cl-] + NC(N)=O
100 kPa, x1 = 0.5
Settings	viscosity [mPa·s]
293.15 K	6026
298.15 K	3662
303.15 K	2352
308.15 K	1540
313.15 K	1026
318.15 K	717
323.15 K	505

CC(CC(C)(C)C)CC(C)(C)C + Cc1cc(C)cc(C)c1
viscosity [mPa·s], 102 kPa
Settings	x2 = 0.1002	x2 = 0.2001	x2 = 0.3009	x2 = 0.4006	x2 = 0.4977	x2 = 0.6	x2 = 0.7	x2 = 0.8001	x2 = 0.9001
293.15 K	1.22	1.13	1.05	0.972	0.908	0.848	0.805	0.761	0.727
303.15 K	1.03	0.96	0.893	0.837	0.789	0.738	0.697	0.658	0.63
313.15 K	0.892	0.831	0.782	0.732	0.691	0.65	0.614	0.58	0.555
323.15 K	0.781	0.738	0.693	0.649	0.613	0.578	0.546	0.517	0.494

CCCCOC(=O)c1ccccc1C(=O)OCCCC + Oc1cccc(O)c1
Settings	viscosity [mPa·s]
293.15 K, 101 kPa, x2 = 0.35	69.1

C=CC#N + CCC(=O)c1ccccc1
308.15 K, 101 kPa
Settings	viscosity [mPa·s]
x2 = 0.1051	0.405
x2 = 0.1752	0.4545
x2 = 0.2496	0.513
x2 = 0.3126	0.5731
x2 = 0.4246	0.6893
x2 = 0.5385	0.8078
x2 = 0.6672	0.9571
x2 = 0.8184	1.161

CN(C)c1ccccc1 + O=S1(=O)CCCC1
viscosity [mPa·s], 101 kPa
Settings	x1 = 0.1056	x1 = 0.2173	x1 = 0.2989	x1 = 0.4055	x1 = 0.5001	x1 = 0.6087	x1 = 0.6965	x1 = 0.798	x1 = 0.9131
303.15 K	7.8	5.97	4.93	3.86	3.12	2.47	2.06	1.68	1.36
308.15 K	6.92	5.33	4.44	3.51	2.85	2.26	1.89	1.55	1.26
313.15 K	6.18	4.79	4.01	3.19	2.61	2.08	1.74	1.43	1.17
